Test results as given in ChEMBL document CHEMBL5120971, “Network Pharmacology Research and Dual-omic Analyses Reveal the Molecular Mechanism of Natural Product Nodosin Inhibiting Muscle-Invasive Bladder Cancer in Vitro and in Vivo” (J Nat Prod, 2022).
Active and inactive are the calls of the source. The calls are words filed in the database; no cut-off is given here.

Tests used:
T-24 [1] = test: Induction of apoptosis in human T24 cells assessed as necrotic cells at 6 uM measured after 48 hrs by Annexin V-FITC/propidium iodide staining based flow cytometry (reference value: 0.57%); type: functional
T-24 [2] = test: Induction of autophagy in human T24 cells assessed as effect on OPTN gene expression at 12 to 18 uM measured after 24 to 30 hrs by analysis; type: functional, cell-based; conditions: dose 12-18 µM, time 24-30 hrs
T-24 [3] = test: Induction of morphological changes in human T24 cells assessed as reduction in cell extension at 4 to 12 uM measured after 48 hrs by microscopy; type: functional, cell-based; conditions: dose 4-12 µM
T-24 [4] = test: Induction of morphological changes in human T24 cells assessed as reduction in cell adherence at 4 to 12 uM measured after 48 hrs by microscopy; type: functional, cell-based; conditions: dose 4-12 µM
T-24 [5] = test: Cell cycle arrest in human T24 cells assessed as increase in cell accumulation at S-phase at 2 to 8 uM measured after 24 hrs by propidium iodide staining based flow cytometry; type: functional; conditions: dose 2-8 µM
T-24 [6] = test: Induction of apoptosis in human T24 cells assessed as necrotic cells at 4 uM measured after 48 hrs by Annexin V-FITC/propidium iodide staining based flow cytometry (reference value: 0.57%); type: functional
T-24 [7] = test: Effect on NEK6 expression in human T24 cells at 6 uM measured after 24 to 30 hrs by proteomic analysis; type: functional, cell-based; conditions: time 24-30 hrs
T-24 [8] = test: Effect on PDCD2L expression in human T24 cells at 6 uM measured after 24 to 30 hrs by proteomic analysis; type: functional, cell-based; conditions: time 24-30 hrs
T-24 [9] = test: Effect on RPA2 expression in human T24 cells at 6 uM measured after 24 to 30 hrs by proteomic analysis; type: functional, cell-based; conditions: time 24-30 hrs
T-24 [10] = test: Effect on E2F6 expression in human T24 cells at 6 uM measured after 24 to 30 hrs by proteomic analysis; type: functional, cell-based; conditions: time 24-30 hrs
T-24 [11] = test: Effect on RHOB expression in human T24 cells at 6 uM measured after 24 to 30 hrs by proteomic analysis; type: functional, cell-based; conditions: time 24-30 hrs
T-24 [12] = test: Induction of autophagy in human T24 cells assessed as effect on RAB24 gene expression at 6 uM measured after 12 to 18 hrs by transcriptome analysis; type: functional, cell-based; conditions: time 12-18 hrs
T-24 [13] = test: Effect on POLD3 expression in human T24 cells at 6 uM measured after 24 to 30 hrs by proteomic analysis; type: functional, cell-based; conditions: time 24-30 hrs
T-24 [14] = test: Induction of cell membrane disruption in human T24 cells at 4 to 8 uM measured after 48 hrs by transmission electron microscopy; type: cell-based; conditions: dose 4-8 µM
T-24 [15] = test: Antimigratory activity against human T24 cells at 4 to 12 uM measured after 24 hrs by scratch test; type: functional, cell-based; conditions: dose 4-12 µM
T-24 [16] = test: Antimigratory activity against human T24 cells assessed as down regulation of PALLD expression at 6 uM measured after 24 to 30 hrs by proteomic analysis; type: functional, cell-based; conditions: time 24-30 hrs
T-24 [17] = test: Induction of apoptosis in human T24 cells assessed as viable cells at 4 uM measured after 48 hrs by Annexin V-FITC/propidium iodide staining based flow cytometry (reference value: 97.49%); type: functional; conditions: read-out: Activity
T-24 [18] = test: Antimigratory activity against human T24 cells assessed as down regulation of LIMA1 expression at 6 uM measured after 24 to 30 hrs by proteomic analysis; type: functional, cell-based; conditions: time 24-30 hrs
T-24 [19] = test: Induction of apoptosis in human T24 cells assessed as up regulation of HMOX1 gene expression at 6 uM measured after 12 to 18 hrs by transcriptome analysis; type: functional, cell-based; conditions: time 12-18 hrs
T-24 [20] = test: Antimigratory activity against human T24 cells assessed as down regulation of CFL2 expression at 6 uM measured after 24 to 30 hrs by proteomic analysis; type: functional, cell-based; conditions: time 24-30 hrs
T-24 [21] = test: Effect on RNF169 expression in human T24 cells at 6 uM measured after 24 to 30 hrs by proteomic analysis; type: functional, cell-based; conditions: time 24-30 hrs
T-24 [22] = test: Effect on CLSPN expression in human T24 cells at 6 uM measured after 24 to 30 hrs by proteomic analysis; type: functional, cell-based; conditions: time 24-30 hrs
T-24 [23] = test: Up regulation of AIFM2 gene expression in human T24 cells at 6 uM measured after 12 to 18 hrs by transcriptome analysis; type: functional, cell-based; conditions: time 12-18 hrs
T-24 [24] = test: Induction of apoptosis in human T24 cells assessed as effect on AIFM2 expression at 6 uM measured after 24 to 30 hrs by proteomic analysis; type: functional, cell-based; conditions: time 24-30 hrs
T-24 [25] = test: Induction of apoptosis in human T24 cells assessed as effect on FAM168A expression at 6 uM measured after 24 to 30 hrs by proteomic analysis; type: functional, cell-based; conditions: time 24-30 hrs
T-24 [26] = test: Induction of apoptosis in human T24 cells assessed as effect on G0S2 expression at 6 uM measured after 24 to 30 hrs by proteomic analysis; type: functional, cell-based; conditions: time 24-30 hrs
T-24 [27] = test: Effect on HLTF expression in human T24 cells at 6 uM measured after 24 to 30 hrs by proteomic analysis; type: functional, cell-based; conditions: time 24-30 hrs
T-24 [28] = test: Induction of autophagy in human T24 cells assessed as up regulation of SQSTM1 expression at 6 uM measured after 24 to 30 hrs by proteomic analysis; type: functional, cell-based; conditions: time 24-30 hrs
T-24 [29] = test: Effect on MSH2 expression in human T24 cells at 6 uM measured after 24 to 30 hrs by proteomic analysis; type: functional, cell-based; conditions: time 24-30 hrs
T-24 [30] = test: Induction of cell membrane disruption in human T24 cells at 4 to 20 uM measured after 24 hrs by Dio/Hoechst 33342 staining based fluorescence assay; conditions: dose 4-20 µM
T-24 [31] = test: Induction of morphological changes in human T24 cells assessed as cell shrinkage at 4 to 12 uM measured after 48 hrs by microscopy; type: functional, cell-based; conditions: dose 4-12 µM
T-24 [32] = test: Inhibition of colony formation in human T24 cells at 1 to 12 uM measured after 12 days by crystal violet staining based microscopy; type: functional, cell-based; conditions: dose 1-12 µM, time 12.0 day
T-24 [33] = test: Induction of apoptosis in human T24 cells assessed as viable cells at 6 uM measured after 48 hrs by Annexin V-FITC/propidium iodide staining based flow cytometry (reference value: 97.49%); type: functional; conditions: read-out: Activity
T-24 [34] = test: Induction of apoptosis in human T24 cells assessed as effect on DHCR24 expression at 6 uM measured after 24 to 30 hrs by proteomic analysis; type: functional, cell-based; conditions: time 24-30 hrs
T-24 [35] = test: Induction of apoptosis in human T24 cells assessed as up regulation of SQSTM1 expression at 6 to 12 uM measured after 24 hrs by immunofluorescence analysis; type: functional, cell-based; conditions: dose 6-12 µM
T-24 [36] = test: Cytotoxicity against human T24 cells assessed as reduction in cell growth at 4 uM by CCK8 assay; type: functional, cell-based; conditions: time 24-72 hrs, TDE = time-dependent effect
T-24 [37] = test: Antitumor activity against human T24 cells xenografted in BALB/c mouse assessed as reduction in tumor growth at 2 mg/kg, ip administered at 2 days interval; type: functional, organism-based
T-24 [38] = test: Induction of autophagy in human T24 cells assessed as effect on WDR41 gene expression at 6 uM measured after 12 to 18 hrs by transcriptome analysis; type: functional, cell-based; conditions: time 12-18 hrs
T-24 [39] = test: Induction of apoptosis in human T24 cells assessed as necrotic cells at 8 uM measured after 48 hrs by Annexin V-FITC/propidium iodide staining based flow cytometry (reference value: 0.57%); type: functional
T-24 [40] = test: Induction of morphological changes in human T24 cells assessed as appearance of apoptotic bodies at 4 to 8 uM measured after 48 hrs by transmission electron microscopy; type: functional, cell-based; conditions: dose 4-8 µM

With C=C1C(=O)[C@]23C[C@H]1C[C@@H](O)[C@H]2[C@@]12CO[C@@H](O)[C@@H]1C(C)(C)CC[C@@H]2OC3=O [NODOSIN] the Activity (T-24 [1]) was 0.4%, the Activity (T-24 [2]) was “Active” and the Activity (T-24 [3]) was “Active”. The Activity (T-24 [4]) was “Active”, the Activity (T-24 [5]) was “Active” and the Activity (T-24 [6]) was 0.2%. The Activity (T-24 [7]) was “Active”, the Activity (T-24 [8]) was “Active” and the Activity (T-24 [9]) was “Active”. The Activity (T-24 [10]) was “Active”, the Activity (T-24 [11]) was “Active” and the Activity (T-24 [12]) was “Active”. For the same compound, the Activity (T-24 [13]) was “Active”, the Activity (T-24 [14]) was “Active” and the Activity (T-24 [15]) was “Active”. For the same compound, the Activity (T-24 [16]) was “Active”, the viability at 4 µM (T-24 [17]) was 96.1% and the Activity (T-24 [18]) was “Active”. The Activity (T-24 [19]) was “Active”, the Activity (T-24 [20]) was “Active” and the Activity (T-24 [21]) was “Active”. For the same compound, the Activity (T-24 [22]) was “Active”, the Activity (T-24 [23]) was “Active” and the Activity (T-24 [24]) was “Active”. For the same compound, the Activity (T-24 [25]) was “Active”, the Activity (T-24 [26]) was “Active” and the Activity (T-24 [27]) was “Active”. The Activity (T-24 [28]) was “Active”, the Activity (T-24 [29]) was “Active” and the Activity (T-24 [30]) was “Active”. For the same compound, the Activity (T-24 [31]) was “Active”, the inhibition (T-24 [32]) was “Active” and the viability at 6 µM (T-24 [33]) was 78.8%. The Activity (T-24 [34]) was “Active”, the Activity (T-24 [35]) was “Active” and the Activity (T-24 [36]) was “Tde”. For the same compound, the Activity (T-24 [37]) was “Active”, the Activity (T-24 [38]) was “Active” and the Activity (T-24 [39]) was 0.35%. For the same compound, the Activity (T-24 [40]) was “Active”.
